The target of one experiment is Adenosine A2A receptor (Homo sapiens (Human), UniProt P29274). Put plainly: A2A Tag-lite HTRF Assay. Particulars: Tag-lite Adenosine A2A labeled cells; A2A Receptor Red antagonist fluorescent ligand 12.5 nM; one-site competitive binding model; read-out: A2A_Ki. The source says:
The final concentration of DMSO was 1%.

In experiment [1] the target is human adenosine A2B receptor (Homo sapiens (Human), UniProt P29275). Put plainly: Adenosine A2B Receptor Cyclic AMP GS Assay. Particulars: HEK-293 cells expressing human A2B receptor; agonist NECA at 12 nM; cAMP accumulation (FRET); read-out: A2B_cAMP_EC50. Format: cell-based. The procedure, abridged:
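HEK-293 cells stably expressing human A2B receptor were pretreated 30 min at room temperature with compound, then stimulated with 12 nM NECA for 60 min. cAMP accumulation was measured by HTRF (665/620 ratio). Values were fitted from percent of control versus log concentration.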

Among the data in US11673894B2, “Imidazopyrimidines and triazolopyrimidines as A2A / A2B inhibitors” (Incyte Corporation, priority 2018, dated 2023) are Ki and EC50 values, retold here.

Bounds are passed on as bounds.

Sequence of Adenosine A2A receptor (P29274 whole entry): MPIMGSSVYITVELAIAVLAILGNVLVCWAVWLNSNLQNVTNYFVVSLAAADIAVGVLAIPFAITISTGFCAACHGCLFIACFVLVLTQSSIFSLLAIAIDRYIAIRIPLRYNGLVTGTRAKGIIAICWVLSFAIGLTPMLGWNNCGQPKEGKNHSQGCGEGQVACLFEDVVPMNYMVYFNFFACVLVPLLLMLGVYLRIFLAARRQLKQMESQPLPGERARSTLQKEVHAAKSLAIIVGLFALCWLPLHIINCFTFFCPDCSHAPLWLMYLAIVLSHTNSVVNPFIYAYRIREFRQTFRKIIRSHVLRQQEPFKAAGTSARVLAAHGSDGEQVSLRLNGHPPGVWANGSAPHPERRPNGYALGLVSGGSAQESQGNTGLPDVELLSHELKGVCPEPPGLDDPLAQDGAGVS
Sequence of human adenosine A2B receptor (P29275 whole entry): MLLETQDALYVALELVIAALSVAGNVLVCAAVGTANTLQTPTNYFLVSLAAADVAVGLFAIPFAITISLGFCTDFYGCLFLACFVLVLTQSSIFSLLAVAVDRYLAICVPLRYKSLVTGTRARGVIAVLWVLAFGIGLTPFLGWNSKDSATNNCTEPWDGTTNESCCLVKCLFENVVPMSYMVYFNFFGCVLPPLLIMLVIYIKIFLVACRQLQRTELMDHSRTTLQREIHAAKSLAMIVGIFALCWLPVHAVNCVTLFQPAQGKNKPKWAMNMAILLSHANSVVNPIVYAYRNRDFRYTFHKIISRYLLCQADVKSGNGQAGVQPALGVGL

As to `N#Cc1cccc(-c2nc(N)n3nc(CN4CC(O)C4)nc3c2-c2ccncn2)c1` [Example 57, 3-(5-Amino-2-((3-hydroxyazetidin-1-yl)methyl)-8-(pyrimidin-4-yl)-[1,2,4]triazolo[1,5-c]pyrimidin-7-yl)benzonitrile], the Ki at Adenosine A2A receptor was less than 10 nM. For the same compound, the EC50 in experiment [1] is 100 to 1000 nM.
As to `Cc1cnccc1-c1c(-c2cccc(C#N)c2)nc(N)n2nc(Cc3ccccn3)nc12` [Example 58, 3-(5-Amino-8-(3-methylpyridin-4-yl)-2-(pyridin-2-ylmethyl)-[1,2,4]triazolo[1,5-c]pyrimidin-7-yl)benzonitrile], on Adenosine A2A receptor, the Ki was less than 10 nM. Further, the EC50 in experiment [1] was less than 10 nM.
As to `COc1cc(-c2c(-c3cccc(C#N)c3)nc(N)n3nc(Cc4ccccn4)nc23)cc(C)n1` [Example 59, 3-(5-Amino-8-(2-methoxy-6-methylpyridin-4-yl)-2-(pyridin-2-ylmethyl)-[1,2,4]triazolo[1,5-c]pyrimidin-7-yl)benzonitrile], the Ki at Adenosine A2A receptor was less than 10 nM. The EC50 in experiment [1] fell in the range of 10 to 100 nM.
For the compound `N#Cc1cccc(-c2nc(N)n3nc(Cc4ccccn4)nc3c2-c2cnn3ncccc23)c1` [Example 60, 3-(5-Amino-8-(pyrazolo[1,5-b]pyridazin-3-yl)-2-(pyridin-2-ylmethyl)-[1,2,4]triazolo[1,5-c]pyrimidin-7-yl)benzonitrile], the Ki at Adenosine A2A receptor is less than 10 nM. In addition, the EC50 in experiment [1] fell in the range of 10 to 100 nM.
As to `Cc1ncoc1-c1c(-c2cccc(C#N)c2)nc(N)n2nc(Cc3ccccn3)nc12` [Example 61, 3-(5-Amino-8-(4-methyloxazol-5-yl)-2-(pyridin-2-ylmethyl)-[1,2,4]triazolo[1,5-c]pyrimidin-7-yl)benzonitrile], the Ki at Adenosine A2A receptor was less than 10 nM. Besides, in experiment [1], the EC50 is less than 10 nM.
Take `Cc1nc(CO)c(-c2c(-c3cccc(C#N)c3)nc(N)n3nc(Cc4ccccn4)nc23)o1` [Example 62, 3-(5-Amino-8-(4-(hydroxymethyl)-2-methyloxazol-5-yl)-2-(pyridin-2-ylmethyl)-[1,2,4]triazolo[1,5-c]pyrimidin-7-yl)benzonitrile]: the Ki at Adenosine A2A receptor was less than 10 nM. The EC50 in experiment [1] is less than 10 nM.
Regarding `COCc1nc(C)oc1-c1c(-c2cccc(C#N)c2)nc(N)n2nc(Cc3ccccn3)nc12` [Example 63, 3-(5-Amino-8-(4-(methoxymethyl)-2-methyloxazol-5-yl)-2-(pyridin-2-ylmethyl)-[1,2,4]triazolo[1,5-c]pyrimidin-7-yl)benzonitrile], at Adenosine A2A receptor, the Ki was less than 10 nM. In addition, the EC50 in experiment [1] is less than 10 nM.
Turning to `N#Cc1cccc(-c2nc(N)n3nc([C@@H](O)c4ccccc4)nc3c2-c2ccncn2)c1` [Example 64, (S)-3-(5-amino-2-(hydroxy(phenyl)methyl)-8-(pyrimidin-4-yl)-[1,2,4]triazolo[1,5-c]pyrimidin-7-yl)benzonitrile], the Ki at Adenosine A2A receptor is less than 10 nM. In addition, the EC50 in experiment [1] is less than 10 nM.
Consider `N#Cc1cccc(-c2nc(N)n3nc([C@H](O)c4ccccc4)nc3c2-c2ccncn2)c1` [Example 65, (R)-3-(5-amino-2-(hydroxy(phenyl)methyl)-8-(pyrimidin-4-yl)-[1,2,4]triazolo[1,5-c]pyrimidin-7-yl)benzonitrile], for which, on Adenosine A2A receptor, the Ki is less than 10 nM. Further, the EC50 in experiment [1] is less than 10 nM.
As to `N#Cc1cccc(-c2nc(N)n3nc(C(=O)c4ccccc4)nc3c2-c2ccncn2)c1` [Example 66, 3-(5-Amino-2-benzoyl-8-(pyrimidin-4-yl)-[1,2,4]triazolo[1,5-c]pyrimidin-7-yl)benzonitrile], the Ki on Adenosine A2A receptor was less than 10 nM. Besides, the EC50 in experiment [1] is less than 10 nM.
For the compound `CCn1nccc1-c1c(-c2cccc(C#N)c2)nc(N)n2nc(C3(c4ccccc4)CC3)nc12` [Example 67, 3-(5-Amino-8-(1-ethyl-1H-pyrazol-5-yl)-2-(1-phenylcyclopropyl)-[1,2,4]triazolo[1,5-c]pyrimidin-7-yl)benzonitrile], on Adenosine A2A receptor, the Ki was less than 10 nM. For the same compound, the EC50 in experiment [1] was in the range of 100 to 1000 nM.
In the same order, the values of `N#Cc1cccc(-c2nc(Nc3ncccc3C#N)n3nc(C(O)c4ccccc4)nc3c2-c2ccncn2)c1` (stereo not shown) [Example 68, 2-((7-(3-Cyanophenyl)-2-(hydroxy(phenyl)methyl)-8-(pyrimidin-4-yl)-[1,2,4]triazolo[1,5-c]pyrimidin-5-yl)amino)nicotinonitrile] are less than 10 nM and 100 to 1000 nM.
In the same order, the values of `N#Cc1cccc(-c2nc(N)n3nc(NC(C#N)c4ccccc4)nc3c2-c2ccncn2)c1` (stereo not shown) [Example 69, 3-(5-Amino-2-((cyano(phenyl)methyl)amino)-8-(pyrimidin-4-yl)-[1,2,4]triazolo[1,5-c]pyrimidin-7-yl)benzonitrile] are less than 10 nM and 10 to 100 nM.
On the same counts, the results for `N#Cc1cccc(-c2nc(N)n3nc(C4CCOC4)nc3c2-c2ccncc2)c1` (stereo not shown) [Example 70, 3-(5-Amino-8-(pyridin-4-yl)-2-(tetrahydrofuran-3-yl)-[1,2,4]triazolo[1,5-c]pyrimidin-7-yl)benzonitrile] are less than 10 nM and 10 to 100 nM.
`N#Cc1cccc(-c2nc(N)n3nc(C(Oc4ccccn4)c4ccccc4)nc3c2-c2ccncn2)c1` (stereo not shown) [Example 71, 3-(5-Amino-2-(phenyl(pyridin-2-yloxy)methyl)-8-(pyrimidin-4-yl)-[1,2,4]triazolo[1,5-c]pyrimidin-7-yl)benzonitrile]: the Ki on Adenosine A2A receptor was less than 10 nM. In experiment [1], the EC50 lay within 10 to 100 nM.
In the case of `N#Cc1cccc(-c2nc(N)n3nc(Cc4c(F)cccc4CN4C[C@@H](O)[C@H](F)C4)nc3c2-c2ccncn2)c1` [Example 72, 3-(5-Amino-2-(2-fluoro-6-(((3R,4R)-3-fluoro-4-hydroxypyrrolidin-1-yl)methyl)benzyl)-8-(pyrimidin-4-yl)-[1,2,4]triazolo[1,5-c]pyrimidin-7-yl)benzonitrile], at Adenosine A2A receptor, the Ki is less than 10 nM. The EC50 in experiment [1] lay in the range of 10 to 100 nM.
On the same counts, the results for `N#Cc1cccc(-c2nc(N)n3nc(Cc4c(F)cccc4CN4CCC(C(=O)O)CC4)nc3c2-c2ccncn2)c1` [Example 73, 1-(2-((5-Amino-7-(3-cyanophenyl)-8-(pyrimidin-4-yl)-[1,2,4]triazolo[1,5-c]pyrimidin-2-yl)methyl)-3-fluorobenzyl)piperidine-4-carboxylic acid] are less than 10 nM and 10 to 100 nM.
In the same order, the values of `CN(Cc1cccc(F)c1Cc1nc2c(-c3ccncn3)c(-c3cccc(C#N)c3)nc(N)n2n1)S(C)(=O)=O` [Example 74, N-(2-((5-Amino-7-(3-cyanophenyl)-8-(pyrimidin-4-yl)-[1,2,4]triazolo[1,5-c]pyrimidin-2-yl)methyl)-3-fluorobenzyl)-N-methylmethanesulfonamide] are less than 10 nM and less than 10 nM.
On the same counts, the results for `N#Cc1cccc(-c2nc(N)n3nc(Cc4c(F)cccc4CN4C(=O)CNC4=O)nc3c2-c2ccncn2)c1` [Example 75, 3-(5-Amino-2-(2-((2,5-dioxoimidazolidin-1-yl)methyl)-6-fluorobenzyl)-8-(pyrimidin-4-yl)-[1,2,4]triazolo[1,5-c]pyrimidin-7-yl)benzonitrile] are less than 10 nM and less than 10 nM.
In the case of `Cc1cc(C(F)(F)F)nn1Cc1nc2c(-c3ccncn3)c(-c3cccc(C#N)c3)nc(N)n2n1` [Example 81, 3-(5-Amino-2-((5-methyl-3-(trifluoromethyl)-1H-pyrazol-1-yl)methyl)-8-(pyrimidin-4-yl)-[l*2,4]triazolo[1,5-c]pyrimidin-7-yl)benzonitrile], the Ki on Adenosine A2A receptor was less than 10 nM. Also, in experiment [1], the EC50 is less than 10 nM.
For the compound `CCc1ncoc1-c1c(-c2cccc(C#N)c2)nc(N)n2nc(Cc3ccccn3)nc12` [Example 82, 3-(5-Amino-8-(4-ethyloxazol-5-yl)-2-(pyridin-2-ylmethyl)-[1,2,4]triazolo[1,5-c]pyrimidin-7-yl)benzonitrile], the Ki at Adenosine A2A receptor is less than 10 nM. The EC50 in experiment [1] is less than 10 nM.
For the compound `CCn1nncc1-c1c(-c2cccc(C#N)c2)nc(N)n2nc(Cc3ccccn3)nc12` [Example 83, 3-(5-Amino-8-(1-ethyl-1H-1,2,3-triazol-5-yl)-2-(pyridin-2-ylmethyl)-[1,2,4]triazolo[1,5-c]pyrimidin-7-yl)benzonitrile], the Ki at Adenosine A2A receptor was less than 10 nM. In addition, the EC50 in experiment [1] lay in the range of 10 to 100 nM.
In the same order, the values of `Cc1cccnc1Cc1nc2c(-c3ocnc3C)c(-c3cccc(C#N)c3)nc(N)n2n1` [Example 84, 3-(5-Amino-8-(4-methyloxazol-5-yl)-2-((3-methylpyridin-2-yl)methyl)-[1,2,4]triazolo[1,5-c]pyrimidin-7-yl)benzonitrile] are less than 10 nM and less than 10 nM.
In the same order, the values of `Cc1nc(CO)c(-c2c(-c3cccc(C#N)c3)nc(N)n3nc(Cc4ncccc4F)nc23)o1` [Example 85, 3-(5-Amino-2-((3-fluoropyridin-2-yl)methyl)-8-(4-(hydroxymethyl)-2-methyloxazol-5-yl)-[1,2,4]triazolo[1,5-c]pyrimidin-7-yl)benzonitrile] are less than 10 nM and less than 10 nM.
In the same order, the values of `N#Cc1cccc(-c2nc(N)n3nc(Cc4c(F)cccc4CN4CCCS4(=O)=O)nc3c2-c2ccncn2)c1` [Example 86, 3-(5-Amino-2-(2-((1,1-dioxidoisothiazolidin-2-yl)methyl)-6-fluorobenzyl)-8-(pyrimidin-4-yl)-[1,2,4]triazolo[1,5-c]pyrimidin-7-yl)benzonitrile] are less than 10 nM and less than 10 nM.
Take `CN1CC(=O)N(Cc2cccc(F)c2Cc2nc3c(-c4ccncn4)c(-c4cccc(C#N)c4)nc(N)n3n2)C1=O` [Example 87, 3-(5-Amino-2-(2-fluoro-6-((3-methyl-2,5-dioxoimidazolidin-1-yl)methyl)benzyl)-8-(pyrimidin-4-yl)-[1,2,4]triazolo[1,5-c]pyrimidin-7-yl)benzonitrile]: the Ki on Adenosine A2A receptor is less than 10 nM. The EC50 in experiment [1] is less than 10 nM.
